Data as given in PubChem BioAssay AID1963862 (Molecular Pharmacology Branch, DTP, NCI, 2024).

Tested on: KRAS patient-derived spheroids with HUVEC/MSC, viability
Assay: Anticancer human tumor 941728-121-R-J1-PDC patient-derived lung adenocarcinoma cell line growth inhibition [KRAS2]
Settings: for IC50: curve of first compound; for viability, T/C: stronger effect = lower value
Outline: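 KRAS-mutant tumor cells were grown as spheroids with HUVEC endothelial cells and human MSCs as stroma. Targeted agents were tested alone and with KRAS pathway inhibitors. Doses started at or near clinical Cmax, or 10 microM, descending half-log.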
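Note: spheroids exposed to agents for seven days before readout.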

`COc1cc(Nc2ncc3c(n2)-c2ccc(Cl)cc2C(c2c(F)cccc2OC)=NC3)ccc1C(=O)O` + CNCc1ccccc1-c1csc(C(C)Nc2nc(C)nc3cc(OC)c(OC)cc23)c1 gave an IC50 (second compound 0.1 µM) of under 31.6 nM, an IC50 (second compound 0.316 µM) of under 31.6 nM and an IC50 (second compound 1 µM) of under 31.6 nM. It also gave an IC50 (second compound 3.16 µM) of under 31.6 nM, an IC50 (second compound 10 µM) of under 31.6 nM and a viability, T/C (second compound 0.1 µM, first compound 0.0316 µM) of 48.4%. It also gave a viability, T/C (second compound 0.1 µM, first compound 0.1 µM) of 47.5%, a viability, T/C (second compound 0.1 µM, first compound 0.316 µM) of 37.5% and a viability, T/C (second compound 0.1 µM, first compound 1 µM) of 45.4%. For the same compound, the viability, T/C (second compound 0.1 µM, first compound 3.16 µM) was 47.6%, the viability, T/C (second compound 0.1 µM, first compound 10 µM) was 34.7% and the viability, T/C (second compound 0.316 µM, first compound 0.0316 µM) was 44.2%. For the same compound, the viability, T/C (second compound 0.316 µM, first compound 0.1 µM) was 36%, the viability, T/C (second compound 0.316 µM, first compound 0.316 µM) was 32.6% and the viability, T/C (second compound 0.316 µM, first compound 1 µM) was 32.2%. It also gave a viability, T/C (second compound 0.316 µM, first compound 3.16 µM) of 36.4%, a viability, T/C (second compound 0.316 µM, first compound 10 µM) of 33.6% and a viability, T/C (second compound 1 µM, first compound 0.0316 µM) of 31.4%. For the same compound, the viability, T/C (second compound 1 µM, first compound 0.1 µM) was 28.4%, the viability, T/C (second compound 1 µM, first compound 0.316 µM) was 27.3% and the viability, T/C (second compound 1 µM, first compound 1 µM) was 27.5%. The viability, T/C (second compound 1 µM, first compound 3.16 µM) was 25.6%, the viability, T/C (second compound 1 µM, first compound 10 µM) was 15.1% and the viability, T/C (second compound 3.16 µM, first compound 0.0316 µM) was 0.4%. The viability, T/C (second compound 3.16 µM, first compound 0.1 µM) was 0.28%, the viability, T/C (second compound 3.16 µM, first compound 0.316 µM) was 0.18% and the viability, T/C (second compound 3.16 µM, first compound 1 µM) was 0.33%. For the same compound, the viability, T/C (second compound 3.16 µM, first compound 3.16 µM) was 0.26%, the viability, T/C (second compound 3.16 µM, first compound 10 µM) was 4.13% and the viability, T/C (second compound 10 µM, first compound 0.0316 µM) was 0.15%. For the same compound, the viability, T/C (second compound 10 µM, first compound 0.1 µM) was 0.22%, the viability, T/C (second compound 10 µM, first compound 0.316 µM) was 0.1% and the viability, T/C (second compound 10 µM, first compound 1 µM) was 0.1%. The viability, T/C (second compound 10 µM, first compound 3.16 µM) was 0.11% and the viability, T/C (second compound 10 µM, first compound 10 µM) was 0.5%.
